Among the data in patent publication US10457654B2 (GENENTECH, INC., priority 2017, dated 2019) are IC50 values, retold here.

In this assay the target is hNav1.7 (Homo sapiens (Human), UniProt Q15858). Briefly: Tritiated compound binding to membranes from cells expressing hNav1.7 and the β1 subunit, competitive binding (LBA, Ex. 243A). Particulars: 100 pM [3H]compound, 18 h, room temperature.
Setting [1] is: read-out: Nav1.7 LBA (Ex. 243A) IC50.
[2] abbreviates: read-out: Nav1.7 (LBA) (Ex. 243A).

Counter-ions that a name gives are not always drawn. Like-named read-outs stand apart in the source and are kept apart here.

Sequence of hNav1.7 (Q15858 whole entry, looked up): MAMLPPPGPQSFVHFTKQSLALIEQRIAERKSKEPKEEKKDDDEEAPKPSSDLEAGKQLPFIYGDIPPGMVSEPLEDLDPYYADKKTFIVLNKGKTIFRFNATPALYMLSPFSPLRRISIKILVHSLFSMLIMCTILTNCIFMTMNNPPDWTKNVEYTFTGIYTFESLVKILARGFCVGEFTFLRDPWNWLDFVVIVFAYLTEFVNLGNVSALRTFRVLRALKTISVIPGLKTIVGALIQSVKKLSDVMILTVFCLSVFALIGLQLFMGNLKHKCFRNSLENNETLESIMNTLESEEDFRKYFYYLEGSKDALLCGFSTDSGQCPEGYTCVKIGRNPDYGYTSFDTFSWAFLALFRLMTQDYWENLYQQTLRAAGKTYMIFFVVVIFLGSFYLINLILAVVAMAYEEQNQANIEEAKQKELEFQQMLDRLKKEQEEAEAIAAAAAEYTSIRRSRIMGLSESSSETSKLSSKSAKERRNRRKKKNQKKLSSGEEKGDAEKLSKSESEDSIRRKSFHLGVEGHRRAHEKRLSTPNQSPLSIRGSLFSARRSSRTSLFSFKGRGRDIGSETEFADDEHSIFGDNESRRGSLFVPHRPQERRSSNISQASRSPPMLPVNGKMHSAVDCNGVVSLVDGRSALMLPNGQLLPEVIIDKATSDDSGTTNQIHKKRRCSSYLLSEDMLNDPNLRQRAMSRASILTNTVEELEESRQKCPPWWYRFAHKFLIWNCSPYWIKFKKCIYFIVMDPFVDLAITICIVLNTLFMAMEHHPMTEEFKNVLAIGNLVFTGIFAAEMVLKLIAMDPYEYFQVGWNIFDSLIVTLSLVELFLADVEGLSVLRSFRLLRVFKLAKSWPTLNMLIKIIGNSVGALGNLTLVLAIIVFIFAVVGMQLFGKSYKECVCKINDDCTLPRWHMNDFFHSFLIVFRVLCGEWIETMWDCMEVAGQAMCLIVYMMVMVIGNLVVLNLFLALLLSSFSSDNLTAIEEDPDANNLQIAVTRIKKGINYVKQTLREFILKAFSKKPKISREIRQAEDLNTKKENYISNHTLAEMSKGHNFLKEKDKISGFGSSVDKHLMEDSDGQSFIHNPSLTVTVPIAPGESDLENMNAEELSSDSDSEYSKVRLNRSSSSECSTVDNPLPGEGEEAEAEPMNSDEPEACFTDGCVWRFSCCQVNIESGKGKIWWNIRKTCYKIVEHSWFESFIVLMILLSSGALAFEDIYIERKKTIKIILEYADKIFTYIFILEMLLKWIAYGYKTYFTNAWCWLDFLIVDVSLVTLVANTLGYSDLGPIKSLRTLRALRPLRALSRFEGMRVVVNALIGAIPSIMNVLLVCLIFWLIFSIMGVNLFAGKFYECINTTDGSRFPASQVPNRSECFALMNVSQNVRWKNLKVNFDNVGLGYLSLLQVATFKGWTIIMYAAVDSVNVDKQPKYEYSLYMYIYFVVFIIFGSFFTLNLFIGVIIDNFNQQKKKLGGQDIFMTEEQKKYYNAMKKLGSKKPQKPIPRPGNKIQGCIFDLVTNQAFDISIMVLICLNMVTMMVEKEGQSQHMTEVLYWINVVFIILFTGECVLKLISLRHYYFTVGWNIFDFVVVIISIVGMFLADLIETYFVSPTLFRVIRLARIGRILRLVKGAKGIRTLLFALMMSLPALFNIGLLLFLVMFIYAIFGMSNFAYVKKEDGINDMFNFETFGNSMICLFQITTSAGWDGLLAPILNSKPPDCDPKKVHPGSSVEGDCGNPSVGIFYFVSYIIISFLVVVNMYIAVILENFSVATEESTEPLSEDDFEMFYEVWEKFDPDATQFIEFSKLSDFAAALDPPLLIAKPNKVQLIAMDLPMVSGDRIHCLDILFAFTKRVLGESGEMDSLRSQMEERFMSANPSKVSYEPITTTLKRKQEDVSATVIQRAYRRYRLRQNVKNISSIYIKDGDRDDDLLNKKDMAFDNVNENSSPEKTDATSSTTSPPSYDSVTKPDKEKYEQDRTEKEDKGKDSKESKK
Sequence of hNav1.7 (Q07699 whole entry partner, looked up): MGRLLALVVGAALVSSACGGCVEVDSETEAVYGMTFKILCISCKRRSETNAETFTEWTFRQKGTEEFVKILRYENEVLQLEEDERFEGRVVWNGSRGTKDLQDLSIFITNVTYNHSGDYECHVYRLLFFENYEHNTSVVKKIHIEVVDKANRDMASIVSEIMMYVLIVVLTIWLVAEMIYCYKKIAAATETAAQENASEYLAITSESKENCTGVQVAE

Take `CCN[C@@H]1CCCC[C@H]1Oc1cc(F)c(S(=O)(=O)Nc2nccs2)cc1Cl` [Example 43, 5-chloro-4-(((1R,2R)-2-(ethylamino)cyclohexyl)oxy)-2-fluoro-N-(thiazol-2-yl)benzenesulfonamide]: under setting [1], the IC50 was 1130 nM.

`CCN[C@H]1CCCC[C@@H]1Nc1cc(F)c(S(=O)(=O)Nc2cccc(F)n2)cc1Cl` [Example 73, 5-chloro-4-(((1S,2S)-2-(ethylamino)cyclohexyl)amino)-2-fluoro-N-(6-fluoropyridin-2-yl)benzenesulfonamide]: the IC50 under setting [1] turned out to be 19.7 nM.

Consider `CN(C)[C@H]1CCCC[C@@H]1Nc1cc(F)c(S(=O)(=O)Nc2ccncn2)cc1Cl` [Example 11, 5-chloro-4-(((1S,2S)-2-(dimethylamino)cyclohexyl)amino)-2-fluoro-N-(pyrimidin-4-yl)benzenesulfonamide], for which, under setting [2], the IC50 was found to be 126 nM.

`CN[C@H]1CCCC[C@@H]1Nc1cc(F)c(S(=O)(=O)Nc2cccc(F)n2)cc1Cl` [Example 74, 5-chloro-2-fluoro-N-(6-fluoropyridin-2-yl)-4-(((1S,2S)-2-(methylamino)cyclohexyl)amino)benzenesulfonamide]: under setting [1], the IC50 came out at 91.7 nM.

`O=S(=O)(Nc1cccc(F)n1)c1cc(Cl)c(N[C@H]2CCCC[C@@H]2N2CCC(O)C2)cc1F` (stereo partly drawn) [Example 62, 5-chloro-2-fluoro-N-(6-fluoropyridin-2-yl)-4-(((1S,2S)-2-(3-hydroxypyrrolidin-1-yl)cyclohexyl)amino)benzenesulfonamide]: the IC50 under setting [1] was determined as 57.8 nM.

On to `CN(C1CNC1)[C@H]1CCCC[C@@H]1Nc1cc(F)c(S(=O)(=O)Nc2nccs2)cc1C1CC1` [Example 57, 4-(((1S,2S)-2-(azetidin-3-yl(methyl)amino)cyclohexyl)amino)-5-cyclopropyl-2-fluoro-N-(thiazol-2-yl)benzenesulfonamide dihydrochloride], for which the IC50 under setting [1] was determined as 2.42 nM.

As to `O=S(=O)(Nc1nccs1)c1cc(Cl)c(N[C@H]2CCCC[C@@H]2NCc2ccccc2)cc1F` [Example 5, 4-(((1S,2S)-2-(benzylamino)cyclohexyl)amino)-5-chloro-2-fluoro-N-(thiazol-2-yl)benzenesulfonamide 2,2,2-trifluoroacetate], under setting [2], the IC50 is 426 nM.

Consider `CN(C)[C@@H]1CC=C(C(F)(F)F)C[C@H]1Nc1cc(F)c(S(=O)(=O)Nc2nccs2)cc1Cl` [Example 48, 5-chloro-4-(((1R,6R)-6-(dimethylamino)-3-(trifluoromethyl)cyclohex-3-en-1-yl)amino)-2-fluoro-N-(thiazol-2-yl)benzenesulfonamide formate], for which the IC50 under setting [1] stood at 127 nM.

Turning to `O=S(=O)(Nc1nccs1)c1cc(Cl)c(N[C@H]2CCCC[C@@H]2N2CCCCC2)cc1F` [Example 70, 5-chloro-2-fluoro-4-(((1S,2S)-2-(piperidin-1-yl)cyclohexyl)amino)-N-(thiazol-2-yl)benzenesulfonamide formate], the IC50 under setting [1] is 3.46 nM.

“5-chloro-4-(((1 S,2S)-2-(ethylamino)cyclohexyl)amino)-2-fluoro-N-(pyrimidin-4-yl)benzenesulfonamide [Example 22]”: the IC50 under setting [2] was determined as 95.1 nM.

Consider `CN(C)[C@@H]1CCCC[C@H]1Oc1cc(F)c(S(=O)(=O)Nc2nccs2)cc1C1CC1` [Example 25, 5-cyclopropyl-4-[(1R,2R)-2-(dimethylamino)cyclohexoxy]-2-fluoro-N-thiazol-2-yl-benzenesulfonamide], for which the IC50 under setting [2] was 7420 nM.

In the case of `CN[C@H]1CCCC[C@@H]1Nc1cc(F)c(S(=O)(=O)Nc2nccs2)cc1Cl` [Example 3, 5-chloro-2-fluoro-4-(((1S,2S)-2-(methylamino)cyclohexyl)amino)-N-(thiazol-2-yl)benzenesulfonamide 2,2,2-trifluoroacetate], the IC50 under setting [2] stood at 16 nM.

Consider `O=S(=O)(Nc1ccncn1)c1cc(Cl)c(N[C@H]2CCCC[C@@H]2N2CCCC2)cc1F` [Example 60, 5-chloro-2-fluoro-N-(pyrimidin-4-yl)-4-(((1S,2S)-2-(pyrrolidin-1-yl)cyclohexyl)amino)benzenesulfonamide], for which the IC50 under setting [1] was found to be 198 nM.

For the molecule `CN(CCO)[C@H]1CCCC[C@@H]1Nc1cc(F)c(S(=O)(=O)Nc2ccncn2)cc1Cl` [Example 89, 5-chloro-2-fluoro-4-(((1S,2S)-2-((2-hydroxyethyl)(methyl)amino)cyclohexyl)amino)-N-(pyrimidin-4-yl)benzenesulfonamide formate], under setting [1], the IC50 came out at 59.9 nM.

Take `CN(C)[C@H]1CCCC[C@@H]1Nc1cc(F)c(S(=O)(=O)Nc2ncc(F)s2)cc1Cl` [Example 49, 5-chloro-4-(((1S,2S)-2-(dimethylamino)cyclohexyl)amino)-2-fluoro-N-(5-fluorothiazol-2-yl)benzenesulfonamide]: under setting [1], the IC50 turned out to be 42.1 nM.

As for `CCN(C)[C@H]1CCCC[C@@H]1Nc1cc(F)c(S(=O)(=O)Nc2nccs2)cc1Cl` [Example 18, 5-chloro-4-[[(1S,2S)-2-[ethyl(methyl)amino]cyclohexyl]amino]-2-fluoro-N-thiazol-2-yl-benzenesulfonamide], the IC50 under setting [2] was 16.8 nM.

Turning to `CN(C1COC1)[C@H]1CCCC[C@@H]1Nc1cc(F)c(S(=O)(=O)Nc2nccs2)cc1Cl` [Example 97, 5-chloro-2-fluoro-4-(((1S,2S)-2-(methyl(oxetan-3-yl)amino)cyclohexyl)amino)-N-(thiazol-2-yl)benzenesulfonamide], the IC50 under setting [1] is 36.4 nM.

As to `CN(C)[C@H]1CCCC[C@@H]1Nc1cc(F)c(S(=O)(=O)Nc2cscn2)cc1Cl` [Example 46, 5-chloro-4-(((1S,2S)-2-(dimethylamino)cyclohexyl)amino)-2-fluoro-N-(thiazol-4-yl)benzenesulfonamide], the IC50 under setting [1] was determined as 770 nM.

Take `CCN[C@H]1CCCC[C@@H]1Nc1cc(F)c(S(=O)(=O)Nc2nccs2)cc1C1CC1` [Example 64, 5-cyclopropyl-4-(((1S,2S)-2-(ethylamino)cyclohexyl)amino)-2-fluoro-N-(thiazol-2-yl)benzenesulfonamide formate]: under setting [1], the IC50 amounted to 11.6 nM.

`CN(C)[C@H]1CCCC[C@@H]1Oc1cc(F)c(S(=O)(=O)Nc2nccs2)cc1C1CC1` [Example 24, 5-cyclopropyl-4-[(1S,2S)-2-(dimethylamino)cyclohexoxy]-2-fluoro-N-thiazol-2-yl-benzenesulfonamide]: the IC50 under setting [2] is 49.9 nM.

For the molecule `CN(C)[C@H]1CC(C(F)(F)F)=CC[C@@H]1Nc1cc(F)c(S(=O)(=O)Nc2nccs2)cc1Cl` [Example 23], the IC50 under setting [2] was determined as 8.4 nM.

Consider `CN(C[C@H](O)C(F)(F)F)[C@H]1CCCC[C@@H]1Nc1cc(F)c(S(=O)(=O)Nc2nccs2)cc1Cl` [Example 94, 5-chloro-2-fluoro-4-(((1S,2S)-2-(methyl((S)-3,3,3-trifluoro-2-hydroxypropyl)amino)cyclohexyl)amino)-N-(thiazol-2-yl)benzenesulfonamide], for which, under setting [1], the IC50 is 31.3 nM.

For the molecule `CC1CCCN1[C@H]1CCCC[C@@H]1Nc1cc(F)c(S(=O)(=O)Nc2nccs2)cc1Cl` (stereo partly drawn) [Example 44, 5-chloro-2-fluoro-4-(((1 S,2S)-2-(2-methylpyrrolidin-1-yl)cyclohexyl)amino)-N-(thiazol-2-yl)benzenesulfonamide], the IC50 under setting [1] was 74.4 nM.

Regarding `CN(C)[C@H]1C[C@@H](C(F)(F)F)CC[C@@H]1Nc1cc(F)c(S(=O)(=O)Nc2nccs2)cc1Cl` [Example 82, 5-chloro-4-(((1S,2S,4S)-2-(dimethylamino)-4-(trifluoromethyl)cyclohexyl)amino)-2-fluoro-N-(thiazol-2-yl)benzenesulfonamide], the IC50 under setting [1] turned out to be 3.35 nM.
